Assay results as given in patent US20250195536A1, “BICYCLOOCTANE KRAS INHIBITORS” (Incyte Corporation, priority 2023, published 2025).

What was measured:
[1] = molecular target: KRAS G12D (Homo sapiens, UniProt P01116, G12D); experiment: GDP-GTP exchange assay (KRAS G12D); assay type: biochemical; conditions: bodipy-GDP/GppNHp exchange with SOS1; 4 h pre-incubation, 2 h reaction;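 note: one dagger IC50 up to 100 nM and two daggers above 100 nM up to 1 μM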
Outline: (§1)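 Bodipy-GDP-loaded KRAS (2.5 nM final) was pre-incubated 4 h at r.t. with inhibitor in Hepes pH 7.5 buffer with MgCl2, then exchange started with GppNHp (500 μM) and SOS1 (150 nM) final. Fluorescence (ex 485/em 520 nm) read after 2 h for G12D, 3 h for G12V; IC50 from four-parameter logistic fit.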

[2] = molecular target: KRAS G12V (Homo sapiens, UniProt P01116, G12V); experiment: GDP-GTP exchange assay (KRAS G12V); assay type: biochemical; conditions: bodipy-GDP/GppNHp exchange with SOS1; 3 h incubation after GppNHp-SOS1;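 note: one dagger IC50 up to 100 nM and two daggers above 100 nM up to 1 μM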
KRAS G12V, sequence (P01116 1-188 isoform P01116-2 G12V): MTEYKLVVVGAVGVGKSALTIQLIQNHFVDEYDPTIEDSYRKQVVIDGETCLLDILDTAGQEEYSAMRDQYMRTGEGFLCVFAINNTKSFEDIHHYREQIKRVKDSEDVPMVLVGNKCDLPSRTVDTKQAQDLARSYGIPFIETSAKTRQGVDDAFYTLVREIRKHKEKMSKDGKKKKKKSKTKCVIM
Outline: as §1

[3] = Caco2 assay (permeability, Papp A-B); assay type: in vitro ADME; conditions: human, Caco-2, absorptive direction (A-B), 50 μM test compound, 4% BSA in receiver
Outline: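 Caco-2 monolayers, 22-25 days on Transwells, TEER 300 Ω·cm^2, dosed apically with 50 μM compound in HBSS; basolateral HBSS with 4% BSA. 120 min at 37 °C, samples quantified by LCMS; Papp (A-B) from receiver-side cumulative flux slope, donor volume, surface area and initial donor amount.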

KRAS G12D, sequence (P01116 1-188 isoform P01116-2 G12D): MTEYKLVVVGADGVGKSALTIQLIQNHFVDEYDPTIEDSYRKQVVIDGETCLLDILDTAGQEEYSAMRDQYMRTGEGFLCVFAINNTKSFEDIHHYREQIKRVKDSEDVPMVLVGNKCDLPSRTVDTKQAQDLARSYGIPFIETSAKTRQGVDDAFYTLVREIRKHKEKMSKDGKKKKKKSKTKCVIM

Structure (SMILES): Cc1cnc(N2C[C@@H]3C[C@H](C2)N(C(=O)C2CC2)[C@H]3c2cc3c(C)nc4c(F)c(-c5cccc(Cl)c5Cl)c(CCC#N)cc4c3n2[C@H]2[C@H]3CN[C@@H]2C3)c(F)c1 (atropisomer, axis not shown; (Ra)) [Example 53, 3-((Ra)-1-((1R,4R,5S)-2-azabicyclo[2.1.1]hexan-5-yl)-2-((1S,5R,7R)-6-(cyclopropanecarbonyl)-3-(3-fluoro-5-methylpyridin-2-yl)-3,6-diazabicyclo[3.2.1]octan-7-yl)-7-(2,3-dichlorophenyl)-6-fluoro-4-methyl-1H-pyrrolo[3,2-c]quinolin-8-yl)propanenitrile]
- G12D_exchange (KRAS_G12D exchange assay IC50) [1]: †
- G12V_exchange (KRAS_G12V exchange assay IC50) [2]: †
- Papp A→B at 120 min, 50 μM [3]: 0.5 to 1 ×10⁻⁶ cm/s

Structure (SMILES): COc1ccc(N2C[C@@H]3C[C@H](C2)N(C(=O)C2CC2)[C@H]3c2cc3c(C)nc4c(F)c(-c5cccc(Cl)c5Cl)c(CCC#N)cc4c3n2[C@H]2[C@H]3CN[C@@H]2C3)cn1 (atropisomer, axis not shown; (Ra)) [Example 24, 3-((Ra)-1-((1R,4R,5S)-2-azabicyclo[2.1.1]hexan-5-yl)-2-((1S,5R,7R)-6-(cyclopropanecarbonyl)-3-(6-methoxypyridin-3-yl)-3,6-diazabicyclo[3.2.1]octan-7-yl)-7-(2,3-dichlorophenyl)-6-fluoro-4-methyl-1H-pyrrolo[3,2-c]quinolin-8-yl)propanenitrile]
- G12D_exchange (KRAS_G12D exchange assay IC50) [1]: ††
- G12V_exchange (KRAS_G12V exchange assay IC50) [2]: †
- Papp A→B at 120 min, 50 μM [3]: ≤ 0.5 ×10⁻⁶ cm/s

Structure (SMILES): Cc1nc2c(F)c(-c3cccc(Cl)c3Cl)c(CCC#N)cc2c2c1cc([C@H]1CCN(c3ccccc3)CCN1C(=O)C1CC1)n2[C@H]1[C@H]2CN[C@@H]1C2 (atropisomer, axis not shown; (Ra)) [Example 117, 3-((Ra)-1-((1R,4R,5S)-2-Azabicyclo[2.1.1]hexan-5-yl)-2-((R)-4-(cyclopropanecarbonyl)-1-phenyl-1,4-diazepan-5-yl)-7-(2,3-dichlorophenyl)-6-fluoro-4-methyl-1H-pyrrolo[3,2-c]quinolin-8-yl)propanenitrile]
- G12D_exchange (KRAS_G12D exchange assay IC50) [1]: †
- G12V_exchange (KRAS_G12V exchange assay IC50) [2]: †
- Papp A→B at 120 min, 50 μM [3]: > 1 ×10⁻⁶ cm/s

Structure (SMILES): Cc1nc2c(F)c(-c3cccc(Cl)c3Cl)c(CCC#N)cc2c2c1cc([C@H]1[C@H]3C[C@H](CN(c4ncnn4C)C3)N1C(=O)C1CC1)n2[C@H]1[C@H]2CN[C@@H]1C2 (atropisomer, axis not shown; (Ra)) [Example 92, 3-((Ra)-1-((1R,4R,5S)-2-azabicyclo[2.1.1]hexan-5-yl)-2-((1S,5R,7R)-6-(cyclopropanecarbonyl)-3-(1-methyl-1H-1,2,4-triazol-5-yl)-3,6-diazabicyclo[3.2.1]octan-7-yl)-7-(2,3-dichlorophenyl)-6-fluoro-4-methyl-1H-pyrrolo[3,2-c]quinolin-8-yl)propanenitrile]
- G12D_exchange (KRAS_G12D exchange assay IC50) [1]: †
- G12V_exchange (KRAS_G12V exchange assay IC50) [2]: †
- Papp A→B at 120 min, 50 μM [3]: ≤ 0.5 ×10⁻⁶ cm/s

Structure (SMILES): Cc1cc(N2C[C@@H]3C[C@H](C2)N(C(=O)C2CC2)[C@H]3c2cc3c(C)nc4c(F)c(-c5cccc(Cl)c5Cl)c(CCC#N)cc4c3n2[C@H]2[C@H]3CN[C@@H]2C3)cc(=O)o1 (atropisomer, axis not shown; (Ra)) [Example 80]
- G12D_exchange (KRAS_G12D exchange assay IC50) [1]: †
- G12V_exchange (KRAS_G12V exchange assay IC50) [2]: †
- Papp A→B at 120 min, 50 μM [3]: ≤ 0.5 ×10⁻⁶ cm/s

Structure (SMILES): Cc1nc2c(F)c(-c3cccc(Cl)c3Cl)c(CCC#N)cc2c2c1cc([C@H]1[C@H]3C[C@H](CN(c4cc(=O)n(C)cn4)C3)N1C(=O)C1CC1)n2[C@H]1[C@H]2CN[C@@H]1C2 (atropisomer, axis not shown; (Ra)) [Example 69, 3-((Ra)-1-((1R,4R,5S)-2-azabicyclo[2.1.1]hexan-5-yl)-2-((1S,5R,7R)-6-(cyclopropanecarbonyl)-3-(1-methyl-6-oxo-1,6-dihydropyrimidin-4-yl)-3,6-diazabicyclo[3.2.1]octan-7-yl)-7-(2,3-dichlorophenyl)-6-fluoro-4-methyl-1H-pyrrolo[3,2-c]quinolin-8-yl)propanenitrile]
- G12D_exchange (KRAS_G12D exchange assay IC50) [1]: †
- G12V_exchange (KRAS_G12V exchange assay IC50) [2]: †
- Papp A→B at 120 min, 50 μM [3]: ≤ 0.5 ×10⁻⁶ cm/s

Structure (SMILES): Cc1nc2c(F)c(-c3cccc(Cl)c3Cl)c(CCC#N)cc2c2c1cc([C@H]1[C@H]3C[C@H](CN(c4ccn(C)c(=O)c4)C3)N1C(=O)C1CC1)n2[C@H]1[C@H]2CN[C@@H]1C2 (atropisomer, axis not shown; (Ra)) [Example 35, 3-((Ra)-1-((1R,4R,5S)-2-azabicyclo[2.1.1]hexan-5-yl)-2-((1S,5R,7R)-6-(cyclopropanecarbonyl)-3-(1-methyl-2-oxo-1,2-dihydropyridin-4-yl)-3,6-diazabicyclo[3.2.1]octan-7-yl)-7-(2,3-dichlorophenyl)-6-fluoro-4-methyl-1H-pyrrolo[3,2-c]quinolin-8-yl)propanenitrile]
- G12D_exchange (KRAS_G12D exchange assay IC50) [1]: †
- G12V_exchange (KRAS_G12V exchange assay IC50) [2]: †
- Papp A→B at 120 min, 50 μM [3]: ≤ 0.5 ×10⁻⁶ cm/s

Structure (SMILES): Cc1nc2c(F)c(-c3cccc(Cl)c3Cl)c(CCC#N)cc2c2c1cc([C@H]1C[C@H]3C[C@H](CN3C(=O)c3ccccc3)N1C(=O)C1CC1)n2[C@H]1[C@H]2CN[C@@H]1C2 (atropisomer, axis not shown; (Ra)) [Example 119, 3-((Ra)-2-((1R,3R,5R)-6-Benzoyl-2-(cyclopropanecarbonyl)-2,6-diazabicyclo[3.2.1]octan-3-yl)-1-((1R,4R,5S)-2-azabicyclo[2.1.1]hexan-5-yl)-7-(2,3-dichlorophenyl)-6-fluoro-4-methyl-1H-pyrrolo[3,2-c]quinolin-8-yl)propanenitrile]
- G12D_exchange (KRAS_G12D exchange assay IC50) [1]: †
- G12V_exchange (KRAS_G12V exchange assay IC50) [2]: †
- Papp A→B at 120 min, 50 μM [3]: ≤ 0.5 ×10⁻⁶ cm/s

Structure (SMILES): Cc1nc2c(F)c(-c3cccc(Cl)c3Cl)c(CCC#N)cc2c2c1cc([C@H]1[C@H]3C[C@H](CN(c4cccc(OC(F)(F)F)c4)C3)N1C(=O)C1CC1)n2[C@H]1[C@H]2CN[C@@H]1C2 (atropisomer, axis not shown; (Ra)) [Example 20, 3-((Ra)-1-((1R,4R,5S)-2-azabicyclo[2.1.1]hexan-5-yl)-2-((1S,5R,7R)-6-(cyclopropanecarbonyl)-3-(3-(trifluoromethoxy)phenyl)-3,6-diazabicyclo[3.2.1]octan-7-yl)-7-(2,3-dichlorophenyl)-6-fluoro-4-methyl-1H-pyrrolo[3,2-c]quinolin-8-yl)propanenitrile]
- G12D_exchange (KRAS_G12D exchange assay IC50) [1]: ††
- G12V_exchange (KRAS_G12V exchange assay IC50) [2]: †
- Papp A→B at 120 min, 50 μM [3]: ≤ 0.5 ×10⁻⁶ cm/s

Structure (SMILES): COc1ccnc(N2C[C@@H]3C[C@H](C2)N(C(=O)C2CC2)[C@H]3c2cc3c(C)nc4c(F)c(-c5cccc(Cl)c5Cl)c(CCC#N)cc4c3n2[C@H]2[C@H]3CN[C@@H]2C3)n1 (atropisomer, axis not shown; (Ra)) [Example 42, 3-((Ra)-1-((1R,4R,5S)-2-azabicyclo[2.1.1]hexan-5-yl)-2-((1S,5R,7R)-6-(cyclopropanecarbonyl)-3-(4-methoxypyrimidin-2-yl)-3,6-diazabicyclo[3.2.1]octan-7-yl)-7-(2,3-dichlorophenyl)-6-fluoro-4-methyl-1H-pyrrolo[3,2-c]quinolin-8-yl)propanenitrile]
- G12D_exchange (KRAS_G12D exchange assay IC50) [1]: †
- G12V_exchange (KRAS_G12V exchange assay IC50) [2]: †
- Papp A→B at 120 min, 50 μM [3]: ≤ 0.5 ×10⁻⁶ cm/s
